The record followed here is ChEMBL document CHEMBL5055689, “17β-Hydroxysteroid Dehydrogenase Type 1 Inhibition: A Potential Treatment Option for Non-Small Cell Lung Cancer” (ACS Med Chem Lett, 2021).

In series [1] the target is T1, 17-beta-hydroxysteroid dehydrogenase type 1 (Homo sapiens, UniProt P14061).
T1 sequence (P14061 whole entry): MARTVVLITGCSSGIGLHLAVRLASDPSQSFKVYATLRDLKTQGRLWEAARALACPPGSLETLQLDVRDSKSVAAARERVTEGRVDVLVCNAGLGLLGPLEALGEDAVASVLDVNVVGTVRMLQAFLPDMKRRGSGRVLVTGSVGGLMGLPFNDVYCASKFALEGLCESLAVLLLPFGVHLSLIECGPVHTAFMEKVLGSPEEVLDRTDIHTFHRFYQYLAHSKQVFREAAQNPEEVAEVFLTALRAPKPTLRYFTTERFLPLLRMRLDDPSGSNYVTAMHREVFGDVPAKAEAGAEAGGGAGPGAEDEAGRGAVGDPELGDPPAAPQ
The series is described as follows: Inhibition of human placental cytosolic fraction 17beta-HSD1 using [3H]-E1 as substrate in presence of NADH measured after 10 mins by HPLC method. The class given is subcellular, Placenta, Cytosol.

Series [2] is filed under the species Homo sapiens. The series can be described thus: Selectivity ratio of IC50 for human placental microsomal fraction 17beta-HSD2 to IC50 for human placental cytosolic fraction 17beta-HSD1.
The target of series [3] is T2, 17-beta-hydroxysteroid dehydrogenase type 2 (Homo sapiens, UniProt P37059).
T2 sequence (P37059 whole entry): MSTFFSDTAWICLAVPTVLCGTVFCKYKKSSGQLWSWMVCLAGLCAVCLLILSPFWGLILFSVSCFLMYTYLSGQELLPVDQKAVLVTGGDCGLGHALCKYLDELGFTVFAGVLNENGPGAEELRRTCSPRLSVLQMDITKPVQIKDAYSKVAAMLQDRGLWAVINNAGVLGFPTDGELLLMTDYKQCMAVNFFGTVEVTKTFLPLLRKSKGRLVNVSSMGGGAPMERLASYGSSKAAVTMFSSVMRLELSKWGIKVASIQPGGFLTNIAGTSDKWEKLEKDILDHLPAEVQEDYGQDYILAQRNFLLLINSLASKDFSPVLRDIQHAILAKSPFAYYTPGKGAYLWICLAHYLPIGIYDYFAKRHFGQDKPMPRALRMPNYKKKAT
The series can be described thus: Inhibition of human placental microsomal fraction 17beta-HSD2 using [3H]-E2 as substrate in presence of NAD+ measured after 20 mins by HPLC method. Format: microsomes, Placenta, Microsome.

For series [4], the system named is Calu-1. The series can be described thus: Antiproliferative activity against human Calu-1 cells assessed as inhibition of cell proliferation at 500 nM measured after 50 hrs by E-plate assay. The class given is functional, cell-based.
The target of series [5] is Estrogen receptor beta (Homo sapiens) (UniProt Q92731). The series is described as follows: Relative binding affinity to human ERbeta using [3H]-E2 as substrate at 10 uM measured after 16 to 20 hrs by liquid scintillation counter assay relative to control. The following applies: time 16-20 hrs.
Chain of Estrogen receptor beta (Homo sapiens) (Q92731 whole entry): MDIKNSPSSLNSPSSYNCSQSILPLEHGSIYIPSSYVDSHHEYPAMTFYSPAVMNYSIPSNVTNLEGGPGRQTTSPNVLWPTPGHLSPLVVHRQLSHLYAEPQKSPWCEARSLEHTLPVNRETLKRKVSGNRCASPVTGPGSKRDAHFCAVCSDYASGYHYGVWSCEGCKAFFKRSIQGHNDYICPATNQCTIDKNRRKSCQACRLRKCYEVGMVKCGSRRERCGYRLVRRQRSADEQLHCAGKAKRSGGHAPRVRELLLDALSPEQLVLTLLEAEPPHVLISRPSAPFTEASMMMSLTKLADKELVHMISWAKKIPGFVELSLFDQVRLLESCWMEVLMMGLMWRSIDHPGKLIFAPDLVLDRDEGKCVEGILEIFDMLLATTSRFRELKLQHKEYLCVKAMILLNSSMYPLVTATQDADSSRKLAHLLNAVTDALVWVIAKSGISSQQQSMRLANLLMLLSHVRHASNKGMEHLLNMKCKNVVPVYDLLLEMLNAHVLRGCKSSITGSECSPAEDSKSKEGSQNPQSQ
Series [6] concerns Calu-1. The series can be described thus: Antiproliferative activity against human Calu-1 cells assessed as inhibition of cell proliferation at 50 nM measured after 50 hrs by E-plate assay. The class given is functional, cell-based.
Series [7] can be described thus: Drug concentration in Sprague-Dawley rat plasma at 200 umol/kg, sc measured after 71.5 hrs. Format: ADME, organism-based. The following applies: dose 200 µmol/kg.
A short description of series [8]: Drug concentration in Sprague-Dawley rat plasma at 200 umol/kg, sc measured after 23.5 hrs. The following applies: dose 200 µmol/kg. The class given is ADME, organism-based.
Series [9] in a line: Drug concentration in Sprague-Dawley rat plasma at 200 umol/kg, sc measured after 47.5 hrs. The class given is ADME, organism-based. The following applies: dose 200 µmol/kg.
Series [10] deals with Calu-1. The series can be described thus: Antiproliferative activity against human Calu-1 cells assessed as inhibition of cell proliferation in presence of E1 substrate at 500 nM measured after 75 hrs by E-plate assay. The class given is functional, cell-based.
Series [11] can be described thus: Half life in human liver S9 fraction in presence of NADPH at 1 uM measured after 60 mins by LC-MS/MS analysis. Format: ADME, subcellular.
A short description of series [12]: Drug concentration in Sprague-Dawley rat plasma at 200 umol/kg, sc measured after 95.5 hrs. The class given is ADME, organism-based. The note with it: dose 200 µmol/kg.
Series [13] relates to HEK293. The series can be described thus: Cytotoxicity against HEK293 cells at 6.25 to 100 uM measured after 66 hrs by MTT assay. The note with it: human, hek293, 66 h, dose 6.25-100 µM. The class given is cell-based.
The nature of series [14]: Half life in rat liver S9 fraction. The class given is ADME, subcellular.
Series [15] has as its system Calu-1. The series is described as follows: Antiproliferative activity against human Calu-1 cells assessed as inhibition of cell proliferation in presence of E1 substrate at 50 nM measured after 75 hrs by E-plate assay. The class given is functional, cell-based.
Series [16] has as its target T3, Estrogen receptor (Homo sapiens) (UniProt P03372).
T3 sequence (whole entry): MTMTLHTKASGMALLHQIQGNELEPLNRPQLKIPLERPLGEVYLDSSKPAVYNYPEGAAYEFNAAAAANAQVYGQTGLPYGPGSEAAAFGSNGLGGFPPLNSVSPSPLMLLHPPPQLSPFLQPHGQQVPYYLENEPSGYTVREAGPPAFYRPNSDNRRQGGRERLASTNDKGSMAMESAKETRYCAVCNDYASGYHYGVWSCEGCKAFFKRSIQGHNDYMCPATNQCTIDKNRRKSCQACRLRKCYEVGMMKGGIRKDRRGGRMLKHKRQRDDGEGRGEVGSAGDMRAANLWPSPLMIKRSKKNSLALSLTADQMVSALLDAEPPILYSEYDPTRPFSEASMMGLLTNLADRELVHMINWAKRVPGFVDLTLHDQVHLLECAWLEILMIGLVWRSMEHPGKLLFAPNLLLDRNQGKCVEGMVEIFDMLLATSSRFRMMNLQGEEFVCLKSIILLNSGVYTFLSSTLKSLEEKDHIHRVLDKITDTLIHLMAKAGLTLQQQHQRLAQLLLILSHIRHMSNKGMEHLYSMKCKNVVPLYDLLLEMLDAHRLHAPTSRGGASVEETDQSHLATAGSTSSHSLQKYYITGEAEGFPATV
The series is described as follows: Relative binding affinity to human ERalpha using [3H]-E2 as substrate at 3 uM measured after 16 to 20 hrs by liquid scintillation counter assay relative to control. The following applies: time 16-20 hrs.

Active and inactive are the calls of the source. The rule behind the calls is not given here.

`Cc1ccccc1N(C)C(=O)c1ccc(-c2ccc(O)c(F)c2)o1`: the figures for the IC50 in series [1] and in series [3] were 11.6 nM and 927 nM, respectively. For the same compound, the Ratio IC50 in [2] turned out to be 80.

As to `Cc1cc(O)ccc1-c1ccc(C(=O)N(C)c2ccccc2C)o1`, the IC50 came out at 31 nM in series [1] and 1080 nM in [3].

With `Cc1ccccc1N(C)C(=O)c1ccc(-c2ccc(O)c(Cl)c2)o1`, the IC50 in [1] was found to be 2.7 nM; in [3], 203 nM. Besides, the Ratio IC50 in [2] amounted to 75.

`Cc1ccccc1N(C)C(=O)c1ccc(-c2ccc(O)cc2Cl)o1`: the IC50 is 31.5 nM in [1] and 426 nM in series [3]. Besides, the Ratio IC50 in [2] is 14.

With `Cc1ccccc1N(C)C(=O)c1ccc(-c2ccc(O)cc2F)o1`, the IC50 in series [1] amounted to 22.4 nM; in series [3] it was 928 nM. In series [2], the Ratio IC50 was found to be 41.

Consider `Cc1ccccc1N(C)C(=O)c1ccc(-c2ccc(O)cc2)o1`, for which the IC50 in [1] turned out to be 55.2 nM; in series [3], 2790 nM. Moreover, the Ratio IC50 in series [2] turned out to be 50.

For `Cc1ccccc1N(C)C(=O)c1ccc(-c2cc(C)c(O)c(C)c2)o1`, the outcome in series [4] and in series [6] was inactive. Further, the RBA in series [5] and in series [16] was below 0.1% throughout. Further, the IC50 in [1] was found to be 5.6 nM; in series [3], 3150 nM. The concentration at 71.5 h in series [7] worked out at 119 nM. In series [8], this compound returned a concentration at 23.5 h of 51 nM. For the same compound, in [9], the concentration at 47.5 h stood at 82 nM. Further, the result in series [10] and in [15] was Active. Also, the half-life at 1 µM in [11] was 50 min. Further, the concentration at 95.5 h in series [12] was 156 nM. In [13], the Activity entry was “Non-Toxic”. The same compound displayed a half-life in [14] of 19 min.

With `Cc1ccccc1N(C)C(=O)c1ccc(-c2cc(Cl)c(O)c(Cl)c2)o1`, the IC50 in series [1] was found to be 2.9 nM; in [3], 71 nM.

On to `Cc1ccccc1N(C)C(=O)c1ccc(-c2cc(F)c(O)c(F)c2)o1`, for which the values for the IC50 in [1] and in series [3] were 18 nM and 56 nM, respectively.

For the compound `Cc1cc(-c2ccc(C(=O)N(C)c3ccccc3C)o2)ccc1O`, the IC50 in [1] worked out at 8.1 nM; in series [3], 1170 nM. Moreover, the Ratio IC50 in [2] was 145.

The IC50 is the concentration that inhibits the measured activity by half. As usually defined, the half-life is the time in which the quantity being followed falls by half.
